Key:
[1] = tested on: pseudotyped VSVs harboring SARS-CoV-2 S (SARS2-Spp); experiment: microbe, parasite or virus in culture; assay type: cell-based
[2] = tested on: rVSV-SARS-CoV-2-S-GFP; assay type: cell-based
[3] = Severe acute respiratory syndrome coronavirus 2
[4] = Severe acute respiratory syndrome coronavirus 2, 24 h
[5] = Severe acute respiratory syndrome coronavirus 2, Huh-7, 24 h
[6] = Severe acute respiratory syndrome coronavirus 2, MA104
[7] = Severe acute respiratory syndrome coronavirus 2, MA104, 24 h

Structure (SMILES) | EC50 [1, 3] [µM] | inhibition of SARS2-Spp entry [1] | EC90 [1, 3] [µM] | EC50 [1, 4] [µM] | EC50 [1, 5] [µM] | EC90 [1, 6] [µM] | EC50 [1, 7] [µM] | EC50 (GFP signals) [2] | inhibition of rVSV-SARS-CoV-2-S-GFP infection [2]
O=C(CCCC[C@@H]1SC[C@@H]2NC(=O)N[C@@H]21)NCc1ccc(C2(C(F)(F)F)N=N2)cc1 [DB-Ctrl] | > 100 | – | – | – | – | – | – | – | –
CCN(CC)CCCC(C)Nc1ccnc2cc(Cl)ccc12 (stereo not drawn) [Chloroquine, chloroquine] | – | inhibited | 30.2 | 2.07 | 4.38 | 32.3 | 7.65 | single-digit micromolar range | inhibited
CN1CCN([C@@H](c2ccccc2)c2ccc(Cl)cc2)CC1 [(S)-CCZ, (S)-chlorcyclizine] | – | – | – | 11.4 | 9.2 | 11.1 | 4.09 | – | –
Cc1cc(-c2nc(CN3CCC(C(=O)NCCCN4C[C@H](C)C[C@H](C)C4)CC3)co2)ccc1F [Fluoxazolevir, fluoxazolevir] | – | – | 13.6 | 6.82 | 2.64 | 18.5 | 3.86 | single-digit micromolar range | inhibited
CN(C)C(=O)COC(=O)Cc1ccc(OC(=O)c2ccc(NC(=N)N)cc2)cc1 [Camostat, camostat] | – | – | – | > 100 | > 100 | – | > 100 | – | –
CCOC(=O)[C@H]1O[C@@H]1C(=O)N[C@@H](CC(C)C)C(=O)NCCC(C)C [E-64d] | – | inhibited | – | – | – | – | – | – | –
O=C(CCCCC1SCC2NC(=O)NC21)NCCOCCOCCN1CCN(C(c2ccc(Cl)cc2)c2ccc(C3(C(F)(F)F)N=N3)cc2)CC1 (stereo not drawn) [CCZ-DB] | 12.9 | – | – | – | – | – | – | – | –
CCN1CCN(C(c2ccc(Cl)cc2)c2ccc(Cl)cc2)CC1 [Dichlorcyclizine, dichlorcyclizine] | – | – | – | 2.34 | 3.05 | – | 4.53 | single-digit micromolar range | inhibited

Reference: paper PMC8749431 (mBio, 2022)
